ChEMBL document CHEMBL1201862, “PubChem BioAssay data set” (2004)
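Grown in 96-well plates, cells were treated for 48 hours with each compound at five concentrations. Insufficient inhibition: endpoint recorded as highest concentration tested. GI50 marks 50% less growth.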 The source made the active and inactive calls. No stated cut-off is given here; in the data, active = GI50 up to about 1.1 µM and inactive = higher.

What was measured:
Assay in all cases: NCI anticancer screen, dose series, 48 h
OVCAR-5 = test system: OVCAR-5
U-251 = test system: U-251
SF-268 = test system: SF-268
HCT-116 = test system: HCT-116
MDA-N = test system: MDA-N
HOP-92 = test system: HOP-92
T47D = test system: T47D
ACHN = test system: ACHN
SNB-75 = test system: SNB-75
SR = test system: SR
CCRF-CEM = test system: CCRF-CEM
OVCAR-3 = test system: OVCAR-3
Hs-578T = test system: Hs-578T
HL-60 = test system: HL-60
NCI/ADR-RES = test system: NCI/ADR-RES
MDA-MB-231 = test system: MDA-MB-231
UACC-257 = test system: UACC-257
SK-OV-3 = test system: SK-OV-3
A498 = test system: A498
786-0 = test system: 786-0
K562 = test system: K562
BT-549 = test system: BT-549
M14 = test system: M14
COLO 205 = test system: COLO 205
A549 = test system: A549
SK-MEL-2 = test system: SK-MEL-2
SW-620 = test system: SW-620
OVCAR-4 = test system: OVCAR-4
SF-295 = test system: SF-295
SN12C = test system: SN12C
MOLT-4 = test system: MOLT-4
DU-145 = test system: DU-145
SK-MEL-28 = test system: SK-MEL-28
OVCAR-8 = test system: OVCAR-8
CAKI-1 = test system: CAKI-1
KM12 = test system: KM12
Malme-3M = test system: Malme-3M
NCI-H23 = test system: NCI-H23
HCC 2998 = test system: HCC 2998
SNB-19 = test system: SNB-19
RPMI-8226 = test system: RPMI-8226
NCI-H522 = test system: NCI-H522
HCT-15 = test system: HCT-15
TK-10 = test system: TK-10
EKVX = test system: EKVX
NCI-H460 = test system: NCI-H460
MCF7 = test system: MCF7
LOX IMVI = test system: LOX IMVI
IGROV-1 = test system: IGROV-1
SF-539 = test system: SF-539
MDA-MB-435 = test system: MDA-MB-435
UACC-62 = test system: UACC-62
UO-31 = test system: UO-31
PC-3 = test system: PC-3
RXF 393 = test system: RXF 393
NCI-H226 = test system: NCI-H226
HT-29 = test system: HT-29
SK-MEL-5 = test system: SK-MEL-5
HOP-62 = test system: HOP-62

Measured: GI50

COC(=O)CCCC(=O)NC1=C(Nc2ccc(OC)cc2)C(=O)c2ccccc2C1=O
inactive: OVCAR-5 18.8 µM | U-251 31.4 µM | SF-268 45.6 µM | HCT-116 19.7 µM | MDA-N 20.7 µM | HOP-92 71 µM | T47D 41.3 µM | ACHN 28 µM | SNB-75 32.2 µM | SR 33.1 µM | CCRF-CEM 20.8 µM | OVCAR-3 6.25 µM | Hs-578T 22.8 µM | HL-60 21.7 µM | NCI/ADR-RES 21.9 µM | MDA-MB-231 30.1 µM | UACC-257 18.1 µM | SK-OV-3 34.1 µM | A498 20.7 µM | 786-0 34.6 µM | K562 23.9 µM | BT-549 19.5 µM | M14 19.4 µM | COLO 205 25.4 µM | A549 22.3 µM | SK-MEL-2 17.9 µM | SW-620 40.7 µM | OVCAR-4 17.8 µM | SF-295 30.4 µM | SN12C 27.7 µM | MOLT-4 24.8 µM | DU-145 16.3 µM | SK-MEL-28 20.9 µM | OVCAR-8 31 µM | CAKI-1 43.2 µM | KM12 28.8 µM | Malme-3M 3.4 µM | NCI-H23 20.4 µM | HCC 2998 20.6 µM | SNB-19 42.7 µM | RPMI-8226 26.4 µM | NCI-H522 37.5 µM | TK-10 > 100 µM | EKVX 21.9 µM | NCI-H460 15.9 µM | MCF7 17.1 µM | LOX IMVI 25.9 µM | IGROV-1 18 µM | SF-539 19.3 µM | MDA-MB-435 18.2 µM | UACC-62 12.8 µM | UO-31 46.2 µM
23.8 µM: HCT-15

Nc1cccc(/C=C/CN2CCN(CCOC(c3ccccc3)c3ccccc3)CC2)c1
inactive: OVCAR-5 16 µM | U-251 14.6 µM | SF-268 17.7 µM | HCT-116 12.5 µM | HOP-92 12.6 µM | T47D 8 µM | ACHN 17.9 µM | SNB-75 10.5 µM | SR 4.61 µM | CCRF-CEM 9.98 µM | OVCAR-3 15.6 µM | Hs-578T 21.8 µM | HL-60 5.05 µM | NCI/ADR-RES 14.3 µM | MDA-MB-231 15 µM | UACC-257 15.9 µM | SK-OV-3 14.1 µM | A498 18 µM | 786-0 14.8 µM | K562 3.11 µM | BT-549 16.1 µM | M14 12.8 µM | COLO 205 6.03 µM | A549 15.1 µM | SK-MEL-2 17.7 µM | SW-620 15.9 µM | PC-3 14.8 µM | OVCAR-4 13.2 µM | RXF 393 12.3 µM | SF-295 17.4 µM | SN12C 16.8 µM | MOLT-4 3.54 µM | NCI-H226 21.2 µM | DU-145 13.6 µM | SK-MEL-28 14 µM | HT-29 3.15 µM | OVCAR-8 16 µM | CAKI-1 19.8 µM | KM12 11.2 µM | Malme-3M 18.2 µM | NCI-H23 16.1 µM | HCC 2998 3.52 µM | SNB-19 15.7 µM | RPMI-8226 3 µM | NCI-H522 13.9 µM | TK-10 15.8 µM | EKVX 16.4 µM | NCI-H460 13.6 µM | SK-MEL-5 12.6 µM | MCF7 13.8 µM | HOP-62 13.8 µM | LOX IMVI 15.6 µM | IGROV-1 16.3 µM | SF-539 16.7 µM | MDA-MB-435 14.3 µM | UACC-62 17.4 µM | UO-31 13.6 µM
12.8 µM: HCT-15

CC1(C)C2CCC1(C)C(N/C(=C(/C(Cl)=C(Cl)Cl)[N+](=O)[O-])n1nnc3ccccc31)C2 (centres undefined)
27.7 µM: HCT-15
inactive: OVCAR-5 29.2 µM | U-251 19.2 µM | SF-268 17.6 µM | HCT-116 43 µM | MDA-N 36.4 µM | T47D 32.7 µM | ACHN 20.9 µM | SNB-75 28 µM | CCRF-CEM 21 µM | OVCAR-3 12.4 µM | Hs-578T 17.3 µM | NCI/ADR-RES 27.5 µM | MDA-MB-231 22.5 µM | UACC-257 38.6 µM | SK-OV-3 40 µM | A498 19.9 µM | 786-0 41.1 µM | BT-549 22.2 µM | M14 37.7 µM | COLO 205 18.5 µM | A549 33.7 µM | SK-MEL-2 22.9 µM | SW-620 27.2 µM | PC-3 21.1 µM | OVCAR-4 24.1 µM | RXF 393 19.2 µM | SF-295 24.3 µM | SN12C 41.8 µM | NCI-H226 19.5 µM | SK-MEL-28 36.7 µM | HT-29 39 µM | OVCAR-8 29.1 µM | CAKI-1 18.6 µM | KM12 21.8 µM | Malme-3M 19.3 µM | NCI-H23 22.4 µM | HCC 2998 40.6 µM | SNB-19 25.1 µM | RPMI-8226 25.7 µM | EKVX 32.4 µM | NCI-H460 37.2 µM | MCF7 32.4 µM | HOP-62 24.9 µM | LOX IMVI 33.2 µM | SF-539 33.8 µM | MDA-MB-435 21.4 µM | UACC-62 20 µM | UO-31 21 µM

O=C1Nc2nnc(S)n2NC12c1ccccc1-c1ccccc12
97.3 µM: HCT-15
inactive: OVCAR-5 > 100 µM | U-251 > 100 µM | SF-268 65.2 µM | HCT-116 24.2 µM | MDA-N 34.5 µM | HOP-92 > 100 µM | ACHN > 100 µM | SNB-75 > 100 µM | SR 33 µM | OVCAR-3 > 100 µM | Hs-578T > 100 µM | HL-60 > 100 µM | NCI/ADR-RES > 100 µM | MDA-MB-231 > 100 µM | UACC-257 17.2 µM | SK-OV-3 > 100 µM | A498 > 100 µM | 786-0 > 100 µM | BT-549 > 100 µM | M14 52 µM | COLO 205 > 100 µM | A549 > 100 µM | SK-MEL-2 > 100 µM | SW-620 > 100 µM | PC-3 > 100 µM | OVCAR-4 19.1 µM | RXF 393 > 100 µM | SF-295 > 100 µM | SN12C > 100 µM | NCI-H226 > 100 µM | DU-145 > 100 µM | SK-MEL-28 > 100 µM | HT-29 > 100 µM | OVCAR-8 > 100 µM | CAKI-1 57.3 µM | Malme-3M > 100 µM | NCI-H23 > 100 µM | HCC 2998 > 100 µM | SNB-19 > 100 µM | NCI-H522 > 100 µM | TK-10 > 100 µM | EKVX > 100 µM | NCI-H460 39.4 µM | SK-MEL-5 > 100 µM | MCF7 33.2 µM | HOP-62 > 100 µM | LOX IMVI 58.9 µM | IGROV-1 96.6 µM | SF-539 > 100 µM | MDA-MB-435 16.8 µM | UACC-62 22.4 µM | UO-31 > 100 µM

C=C1C(=O)OC2C3C(=C)[C@@H](OC(C)=O)CC3C(C)=CC(OC(=O)C(C)(OC(C)=O)C(C)OC(C)=O)[C@@H]12 (some centres undefined)
inactive: OVCAR-5 21.9 µM | U-251 16.5 µM | SF-268 21.7 µM | HCT-116 11 µM | MDA-N 14.9 µM | T47D 23.3 µM | ACHN 13.7 µM | SNB-75 18.9 µM | SR 22.2 µM | CCRF-CEM 3.25 µM | OVCAR-3 13.2 µM | Hs-578T 23.4 µM | HL-60 2.52 µM | MDA-MB-231 18.5 µM | UACC-257 14.9 µM | SK-OV-3 83.2 µM | 786-0 16.6 µM | K562 7.29 µM | BT-549 18.5 µM | M14 14.6 µM | COLO 205 14.8 µM | A549 24.3 µM | SK-MEL-2 12.3 µM | SW-620 9.33 µM | PC-3 17.3 µM | OVCAR-4 13.3 µM | RXF 393 12.3 µM | SF-295 61.2 µM | SN12C 15.7 µM | MOLT-4 6.56 µM | NCI-H226 23.8 µM | DU-145 16.1 µM | SK-MEL-28 15.1 µM | HT-29 14.4 µM | OVCAR-8 30.1 µM | CAKI-1 10.6 µM | KM12 16.8 µM | Malme-3M 13.6 µM | NCI-H23 18.6 µM | HCC 2998 18.6 µM | SNB-19 85.7 µM | RPMI-8226 6.55 µM | NCI-H522 2.52 µM | TK-10 14.1 µM | EKVX 16.6 µM | NCI-H460 23.6 µM | SK-MEL-5 12.6 µM | MCF7 11.5 µM | HOP-62 37.4 µM | LOX IMVI 13.4 µM | IGROV-1 18.5 µM | SF-539 17.4 µM | MDA-MB-435 13.5 µM | UACC-62 13.3 µM | UO-31 16.4 µM
12.8 µM: HCT-15
